Test results reported in patent US12012467B2, “Small molecule DCN1 inhibitors and therapeutic methods using the same” (THE REGENTS OF THE UNIVERSITY OF MICHIGAN, priority 2017, dated 2024).
Counter-ions that a name gives are not always drawn. Square brackets hold non-standard residues; d marks the D form. Peptide text beside a SMILES is read from it. * marks the point of attachment. 2Nal = N[C@@H](Cc1ccc2ccccc2c1)C(=O)O; Tfa = O=C(C(F)(F)F)*; For = O=C*

What follows are compounds tested against DCN1 (Homo sapiens (Human), UniProt Q96GG9) (assay: Competitive FP binding assay). Conditions: not given.
Sequence of DCN1 (Q96GG9 58-259): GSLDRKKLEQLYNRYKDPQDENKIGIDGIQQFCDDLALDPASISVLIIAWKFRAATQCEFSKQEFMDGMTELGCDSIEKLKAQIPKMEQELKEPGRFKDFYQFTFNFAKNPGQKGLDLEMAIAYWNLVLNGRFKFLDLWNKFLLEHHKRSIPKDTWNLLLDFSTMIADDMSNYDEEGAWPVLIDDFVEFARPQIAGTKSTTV
Summary of the method: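 FP competition with DCN1 in 100 mM phosphate pH 6.5, 0.02% Tween-20, 2% DMSO, probe 5 nM final. Equilibrated 30 min at room temperature with shaking. DCN1 was His6-tagged (uncleaved), expressed in E. coli Rosetta2 and purified by Ni-NTA and gel filtration.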
In the case of `CC[C@H](C)[C@H](NC(=O)[C@H](Cc1ccc2ccccc2c1)NC(=O)C(F)(F)F)C(=O)N[C@@H](CCCCN)C(=O)N[C@@H](CC(C)C)C(N)=O` [Example 137] (Tfa-[2Nal]IKL-NH2), the “Binding affinity to DCN1 (IC50 (nM))” value is reported as “precipitation”.

Same assay, conditions: bounds given in μM; read-out: Binding affinity to DCN1 (IC50)
`CCC(=O)N[C@@H](Cc1nc(C)c(C(C)C)s1)C(=O)N[C@H](CN)Cc1ccccc1` [Example 99] showed an IC50 greater than 10 µM. With `CCC(=O)N[C@@H](Cc1nc(C)c(-c2ccccc2Cl)s1)C(=O)N[C@H](CN)Cc1ccccc1` [Example 104] the IC50 was greater than 10 µM. `CCC(=O)N[C@@H](Cc1nc(C)c(-c2ccc(C#N)cc2)s1)C(=O)N[C@H](CN)Cc1ccccc1` [Example 105] gave an IC50 greater than 10 µM. Work on `CCC(=O)N[C@@H](Cc1nc(C)c(-c2ccc([N+](=O)[O-])cc2)s1)C(=O)N[C@H](CN)Cc1ccccc1` [Example 106] yielded an IC50 greater than 10 µM. `CCC(=O)N[C@H](CN)Cc1nc2ccc(C(C)C)cc2s1` [Example 109] showed an IC50 greater than 10 µM. `CCC(=O)N[C@H](CNC(=O)C1(N)CCC(F)(F)CC1)Cc1nc2ccc(C(C)C)cc2s1` [Example 111] was tested, and the IC50 was greater than 5 µM. `CCC(=O)N[C@H](Cc1nc2ccc(C(C)C)cc2s1)C(=O)N[C@@H](CN)C1CCCCC1` [Example 122, (R)—N—((R)-2-amino-1-cyclohexylethyl)-3-(6-isopropylbenzo[d]thiazol-2-yl)-2-propionamidopropanamide] was tested, and the IC50 was greater than 10 µM. Compound `CCC(=O)N[C@@H](Cc1ccccn1)C(=O)N[C@H](C(=O)N[C@@H](CCCCN)C(=O)NC(c1ccccc1)c1ccccc1)[C@@H](C)CC` [Example 132] has an IC50 greater than 10 µM. `CCC(=O)N[C@@H](Cc1cccnc1)C(=O)N[C@H](C(=O)N[C@@H](CCCCN)C(=O)NC(c1ccccc1)c1ccccc1)[C@@H](C)CC` [Example 133] gave an IC50 greater than 10 µM. Work on `CCC(=O)N[C@@H](Cc1cccc(C)n1)C(=O)N[C@H](C(=O)N[C@@H](CCCCN)C(=O)NC(c1ccccc1)c1ccccc1)[C@@H](C)CC` [Example 134] yielded an IC50 greater than 10 µM. In the case of `CCC(=O)N[C@@H](Cc1ccc(C)cn1)C(=O)N[C@H](C(=O)N[C@@H](CCCCN)C(=O)NC(c1ccccc1)c1ccccc1)[C@@H](C)CC` [Example 135], the IC50 is reported as greater than 10 µM. In the case of `CCC(=O)N[C@@H](Cc1nc2ccccc2n1C)C(=O)N[C@H](C(=O)N[C@@H](CCCCN)C(=O)NC(c1ccccc1)c1ccccc1)[C@@H](C)CC` [Example 136], the IC50 is reported as greater than 5 µM. `CCC(=O)N[C@@H](Cc1ccc2ccccc2c1)C(=O)N[C@H](C(=O)N[C@@H](CN(C)C)C(=O)NC(c1ccc(F)cc1)c1ccc(F)cc1)C1CCCC1` [Example 139] was tested, and the IC50 was greater than 10 µM. Compound `CC[C@H](C)[C@H](NC(=O)[C@@H](N)Cc1ccc2ccccc2c1)C(=O)N[C@@H](CCCCN)C(=O)N[C@@H](CC(C)C)C(N)=O` [Example 142] (H-[2Nal]IKL-NH2) has an IC50 greater than 10 µM. In the case of `CC[C@H](C)[C@H](NC(=O)[C@H](Cc1ccc2ccccc2c1)NC=O)C(=O)N[C@@H](CCCCN)C(=O)N[C@@H](CC(C)C)C(N)=O` [Example 143] (For-[2Nal]IKL-NH2), the IC50 is reported as greater than 10 µM. Compound `CCC(=O)N[C@H](Cc1ccc2ccccc2c1)C(=O)N[C@H](C(=O)N[C@@H](CCCCN)C(=O)NC(c1ccccc1)c1ccccc1)C1CCCC1` [Example 145] has an IC50 greater than 10 µM. With `CCC(=O)N[C@@H](Cc1ccc2ccccc2c1)C(=O)N[C@H](C(=O)N[C@@H](CCCCN)C(=O)N[C@@H](CN)c1ccccc1)C1CCCC1` [Example 151] the IC50 was greater than 10 µM. In the case of `CCC(=O)N[C@@H](Cc1ccc2ccccc2c1)C(=O)N[C@H](C(=O)N[C@@H](CCCCN)C(=O)N[C@H]1CNCc2ccccc21)C1CCCC1` [Example 159], the IC50 is reported as greater than 3 µM.

Same assay, conditions: read-out: Binding affinity to DCN1 (IC50 (nM))
Work on `CCC(=O)N[C@@H](Cc1nc(C)c(-c2ccc(F)cc2)s1)C(=O)N[C@H](CN)Cc1ccccc1` [Example 100] yielded an IC50 of 2.22 µM. With `CCC(=O)N[C@@H](Cc1nc(C)c(-c2ccccc2)s1)C(=O)N[C@H](CN)Cc1ccccc1` [Example 101] the IC50 was 1.74 µM. In the case of `CCC(=O)N[C@@H](Cc1nc(C)c(-c2ccc(Cl)cc2)s1)C(=O)N[C@H](CN)Cc1ccccc1` [Example 102], the IC50 is reported as 1.28 µM. `CCC(=O)N[C@@H](Cc1nc(C)c(-c2cccc(Cl)c2)s1)C(=O)N[C@H](CN)Cc1ccccc1` [Example 103] was tested, and the IC50 was 0.264 µM. `CCC(=O)N[C@@H](Cc1nc(C)c(-c2cccc(Cl)c2)s1)C(=O)N[C@H](CN)C1CCCCC1` [Example 107] showed an IC50 of 0.704 µM. In the case of `CCC(=O)N[C@@H](Cc1cn2cc(Cl)ccc2n1)C(=O)N[C@H](CN)Cc1ccccc1` [Example 108], the IC50 is reported as 4.17 µM. Compound `CCC(=O)N[C@H](CNC(=O)C1(N)CCCCC1)Cc1nc2ccc(C(C)C)cc2s1` [Example 110] has an IC50 of 1.91 µM. `CCC(=O)N[C@H](CNC(=O)C1(N)CCOCC1)Cc1nc2ccc(C(C)C)cc2s1` [Example 112] gave an IC50 of 5.06 µM. `CCC(=O)N[C@H](CNC(=O)C1(N)CCC1)Cc1nc2ccc(C(C)C)cc2s1` [Example 113] was tested, and the IC50 was 4.11 µM. For `CCC(=O)N[C@H](CNC(=O)C1(N)CCCC1)Cc1nc2ccc(C(C)C)cc2s1` [Example 114], the IC50 was 1.55 µM. Work on `CCC(=O)N[C@H](CNC(=O)C1(N)CCCCCC1)Cc1nc2ccc(C(C)C)cc2s1` [Example 115] yielded an IC50 of 2.39 µM. Compound `CCC(=O)N[C@H](CNC(=O)C1(N)CCCCCCC1)Cc1nc2ccc(C(C)C)cc2s1` [Example 116] has an IC50 of 2.2 µM. In the case of `CCC(=O)N[C@H](CNC(=O)C1(CN)CCCCC1)Cc1nc2ccc(C(C)C)cc2s1` [Example 117], the IC50 is reported as 0.875 µM. For `CCC(=O)N[C@H](CNC(=O)[C@@H]1CCCCN1)Cc1nc2ccc(C(C)C)cc2s1` [Example 118], the IC50 was 3.11 µM. Work on `CCC(=O)N[C@H](CNC(=O)C1(N)CCCCC1)Cc1nc2ccc(Cl)cc2s1` [Example 119] yielded an IC50 of 0.477 µM. Compound `CCC(=O)N[C@@H](Cc1ccc2ccccc2c1)C(=O)N[C@H](C(=O)N[C@@H](CCCCN)C(=O)NC(c1ccc(F)cc1)c1ccc(F)cc1)[C@@H](C)CC` [Example 128] has an IC50 of 0.321 ± 0.032 µM. `CCC(=O)N[C@@H](Cc1ccc2ccccc2c1)C(=O)N[C@H](C(=O)N[C@@H](CCCCN)C(=O)NC(c1ccc(Cl)cc1)c1ccc(Cl)cc1)[C@@H](C)CC` [Example 129] showed an IC50 of 0.748 µM. Compound `CCC(=O)N[C@@H](Cc1ccc2ccccc2n1)C(=O)N[C@H](C(=O)N[C@@H](CCCCN)C(=O)NC(c1ccccc1)c1ccccc1)[C@@H](C)CC` [Example 130] has an IC50 of 2.37 µM. `CCC(=O)N[C@@H](Cc1cc2ccccc2cn1)C(=O)N[C@H](C(=O)N[C@@H](CCCCN)C(=O)NC(c1ccccc1)c1ccccc1)[C@@H](C)CC` [Example 131] was tested, and the IC50 was 2.61 µM. Compound `CCC(=O)N[C@@H](Cc1ccc2ccccc2c1)C(=O)N[C@H](C(=O)N[C@@H](CCCCN)C(=O)NC(c1ccc(F)cc1)c1ccc(F)cc1)C1CCCC1` [Example 138] has an IC50 of 1.75 µM. Work on `CCC(=O)N[C@@H](Cc1ccc2ccccc2c1)C(=O)N[C@H](C(=O)N[C@@H](CCCCN(C)C)C(=O)NC(c1ccc(F)cc1)c1ccc(F)cc1)C1CCCC1` [Example 140] yielded an IC50 of 0.483 µM. With `CCC(=O)N[C@@H](Cc1ccc2ccccc2c1)C(=O)N[C@H](C(=O)N[C@@H](CCCCN1CCOCC1)C(=O)NC(c1ccc(F)cc1)c1ccc(F)cc1)C1CCCC1` [Example 141] the IC50 was 0.871 µM. Compound `CCC(=O)N[C@@H](Cc1ccc2ccccc2c1)C(=O)N[C@H](C(=O)N[C@@H](CCCCNC1CCN(C)CC1)C(=O)NC(c1ccc(F)cc1)c1ccc(F)cc1)C1CCCC1` [Example 144] has an IC50 of 0.273 µM. In the case of `CCC(=O)N[C@@H](Cc1ccc2ccccc2c1)C(=O)N[C@H](C(=O)N[C@@H](CCCCN(C)C)C(=O)NC(c1ccccc1)c1ccccc1)C1CCCC1` [Example 146], the IC50 is reported as 0.464 µM. `CCC(=O)N[C@@H](Cc1ccc2ccccc2c1)C(=O)N[C@H](C(=O)N[C@@H](CCCCNC1CCN(C)CC1)C(=O)NC(c1ccccc1)c1ccccc1)C1CCCC1` [Example 147] was tested, and the IC50 was 0.354 µM. `CCC(=O)N[C@@H](Cc1ccc2ccccc2c1)C(=O)N[C@H](C(=O)N[C@@H](CCCCN)C(=O)N[C@@H]1CCCc2ccccc21)C1CCCC1` [Example 148] showed an IC50 of 0.402 µM. `CCC(=O)N[C@@H](Cc1ccc2ccccc2c1)C(=O)N[C@H](C(=O)N[C@@H](CCCCN)C(=O)N[C@@H]1CCOc2ccccc21)C1CCCC1` [Example 149] gave an IC50 of 0.378 µM. `CCC(=O)N[C@@H](Cc1ccc2ccccc2c1)C(=O)N[C@H](C(=O)N[C@@H](CCCCN)C(=O)N[C@H](CN)c1ccccc1)C1CCCC1` [Example 150] was tested, and the IC50 was 2 µM. `CCC(=O)N[C@@H](Cc1nc2ccccc2s1)C(=O)N[C@H](C(=O)N[C@@H](CCCCN)C(=O)NC(c1ccccc1)c1ccccc1)[C@@H](C)CC` [Example 152] was tested, and the IC50 was 0.376 µM. `CCC(=O)N[C@@H](Cc1nc2cc(Cl)ccc2s1)C(=O)N[C@H](C(=O)N[C@@H](CCCCN)C(=O)NC(c1ccccc1)c1ccccc1)[C@@H](C)CC` [Example 153] showed an IC50 of 1.9 µM. Compound `CCC(=O)N[C@@H](Cc1nc2ccccc2o1)C(=O)N[C@H](C(=O)N[C@@H](CCCCN)C(=O)NC(c1ccccc1)c1ccccc1)[C@@H](C)CC` [Example 154] has an IC50 of 0.981 µM. In the case of `CCC(=O)N[C@@H](Cc1nc2cc(Cl)ccc2o1)C(=O)N[C@H](C(=O)N[C@@H](CCCCN)C(=O)NC(c1ccccc1)c1ccccc1)[C@@H](C)CC` [Example 155], the IC50 is reported as 1.2 µM. For `CCC(=O)N[C@@H](Cc1nc2ccc(Cl)cc2o1)C(=O)N[C@H](C(=O)N[C@@H](CCCCN)C(=O)NC(c1ccccc1)c1ccccc1)[C@@H](C)CC` [Example 156], the IC50 was 0.194 µM. `CCC(=O)N[C@@H](Cc1nc2ccc(OC)cc2o1)C(=O)N[C@H](C(=O)N[C@@H](CCCCN)C(=O)NC(c1ccccc1)c1ccccc1)[C@@H](C)CC` [Example 157] was tested, and the IC50 was 0.265 µM. `CCC(=O)N[C@@H](Cc1nc2ccc(Cl)cc2s1)C(=O)N[C@H](C(=O)N[C@@H](CCCCN)C(=O)NC(c1ccc(F)cc1)c1ccc(F)cc1)C1CCCC1` [Example 158] gave an IC50 of 0.307 µM. `CCC(=O)N[C@@H](Cc1ccc2ccccc2c1)C(=O)N[C@H](C(=O)N[C@@H](CCCCN)C(=O)N[C@@H]1CNCc2ccccc21)C1CCCC1` [Example 160] gave an IC50 of 0.457 µM. With `CCC(=O)N[C@@H](Cc1ccc2ccccc2c1)C(=O)N[C@H](C(=O)N[C@@H](CCCCN)C(=O)N[C@@H](c1ccccc1)c1cn(CCN)nn1)C1CCCC1` [Example 161] the IC50 was 0.943 µM.
